Experimental data reported in paper PMC9966726, “Methylene Blue Inhibits Cromakalim-Activated K^+ Currents in Follicle-Enclosed Oocytes” (Membranes, 2023).

Columns and labels:
[1] = system: T1, KATP channels of follicular cells (follicle-enclosed Xenopus oocytes); test: two-electrode voltage clamp, cromakalim-activated K+ current, follicle-enclosed oocytes; type: cell-based, Xenopus laevis; conditions: channel opener; control without MB; -20 mV; pH 7.5; slope 0.91
T1 construct: gene kcnj11; native channel, endogenous to follicular cells; pore tetramer with one SUR per pore subunit; isoforms not determined

[2] = system: T1, KATP channels of follicular cells (follicle-enclosed Xenopus oocytes); test: as above; type: cell-based, Xenopus laevis; conditions: 100 μM cromakalim; 20 min MB preincubation; -20 mV; pH 7.5; noncompetitive, voltage-independent; slope 1.1
[3] = system: T1, KATP channels of follicular cells (follicle-enclosed Xenopus oocytes); test: [3H]glibenclamide saturation binding, microsomal membranes, filtration; set-up: species or system Xenopus laevis; conditions: labelled compound; control without MB; 50 mM HEPES, pH 7.5, 22 °C, 60 min; sulfonylurea receptor site

Compound: CC1(C)Oc2ccc(C#N)cc2C(N2CCCC2=O)C1O (stereo not drawn) [CKL, cromakalim]
- EC50 [1]: 194 ± 21 µM

Compound: CN(C)c1ccc2nc3ccc(N(C)C)cc3[s+]c2c1 [MB, Methylene blue]
- IC50 [2]: 22.4 µM

Compound: COc1ccc(Cl)cc1C(=O)NCCc1ccc(S(=O)(=O)NC(=O)NC2CCCCC2)cc1 [[^3H]glibenclamide]
- Kd [3]: 0.00121 ± 0.00014 µM
